Measured values from patent US20260000710A1, “Novel Treatments for Cardiovascular Related Disease” (priority 2022, published 2026).

Test system: AIM+ and AIM− CD4+ T cells from peptide-expanded PBMCs
Experiment: TCRβ CDR3 sequencing (immunoSEQ) of sorted AIM+ and AIM− CD4+ T cells;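 note: genomic DNA from sorted cells as template, amplification bias-controlled two-step multiplex PCR, APOB6 pool at 10 µg/ml per peptide, CD40 blocking antibody added before restimulation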
Type: cell-based, human
Details: for Log10 Odds Ratio: AIM+ vs AIM−; for No. of clone-specific productive templates, AIM+ CD4+ T (Total 16700) / No. of clone-specific productive templates, AIM− CD4+ T (Total 21770) / No. of clone-specific productive templates, AIM+ CD4+ T (Total 34927) / No. of clone-specific productive templates, AIM− CD4+ T (Total 45364) / No. of clone-specific productive templates, AIM+ CD4+ T (Total 31354) / No. of clone-specific productive templates, AIM− CD4+ T (Total 48987) / No. of clone-specific productive templates, AIM+ CD4+ T (Total 25796) / No. of clone-specific productive templates, AIM− CD4+ T (Total 25928) / No. of clone-specific productive templates, AIM+ CD4+ T (Total 18591) / No. of clone-specific productive templates, AIM− CD4+ T (Total 7206) / No. of clone-specific productive templates, AIM+ CD4+ T (Total 21697) / No. of clone-specific productive templates, AIM− CD4+ T (Total 49956): PBMCs expanded 14 days and restimulated 24 h with APOB6
Description: To examine the clonotypic identities of autoreactive CD4^+ T cells, the hypervariable TCRβ DR3 region was sequenced using a DNA-based sequencing technique^42 (Adaptive Biotechnologies), which have been used to profile clonal populations of other self-antigen specific T cells^43. PBMCs from six HLA-typed donors (demographics and HLA-II alleles in Tables 5, 6) were expanded (14-days) and restimulated (24 h) with the APOB6 pool. To isolate viable responder and non-responder CD4^+ T cells from the same pool of stimulated PBMCs (schematic in FIG. 15A, gating strategy in FIG. 151B), the inventors used the AIM assay protocol (FIGS. 2A to 2D).
As a second control, unexpanded PBMCs (day 0 samples), sorted into naïve, central memory (TCM) and effector memory (TEM) CD4^+ T cells, were used (gating strategy in FIG. 15C). This allowed tracing the APOB6-specific AIM^+ T cell clones in naïve and memory T cell lineages. Genomic DNA, isolated from sorted AIM^− and AIM^+ Day 14 samples and naïve, TCM and TEM Day 0 samples from six donors, was used as the starting material for TCRVβ sequencing (schematic in FIG. 15A) using an optimized two-step, amplification bias-controlled multiplex-PCR-based approach^42,44 (immunoSEQ Human TCRB Assay, Adaptive Biotechnologies).
For isolation of APOB epitope-specific CD4^+ T cells, PBMCs were expanded with the APOB6pool (10 μg/ml per peptide). On Day 14, cultured cells were washed and re-stimulated with APOB6 (10 μg/ml) for 24 h (AIM assay protocol). 1 μg/ml of CD40 blocking antibody was added 15 min before stimulation. At the end of the stimulation period, cells were washed with FACS buffer (PBS w/o Ca/Mg, 2% FCS). Day 14 (APOB6 expanded and restimulated) and Day 0 (ex vivo samples with no in vitro stimulation) PBMC samples from six donors were resuspended in a staining master mix containing anti-human Fc-Block (Biolegend), fixable viability dye and antibodies against T cell and non-T cell (Dump) surface markers, activation markers and memory markers (antibody details in Table 4). Viability dye was used at 1:1000 dilution, antibodies were used at a final dilution of 1:100 (activation markers) and 1:200 (other extracellular markers). […] Gates were set based on unstimulated and PHA-L stimulated negative and positive controls, respectively. Antigen-specific AIM^+ and non-specific control AIM^− CD4^+ T cells from Day 14 samples and naïve (CD45RA^+CCR7^+), central memory (CD45RA^−CCR7^+, TCM) and effector memory (CD45RA^−CCR7^−, TEM) CD4^+ T cells from Day 0 PBMCs were sorted into HEPES-containing buffer (PBS with 2% FBS and 0.025 M HEPES) using BD FACSAria flow cytometry sorters. Acquired data was analyzed with FlowJo software.
Genomic DNA was extracted from sorted cells using QIAamp DNA Micro Kit (QIAGEN) and sent to Adaptive Biotechnologies for survey-level TCRβ sequencing (depth ˜60,000 reads) using their established immunoSEQ platform^7. Briefly, highly variable CDR3 regions on somatically rearranged human TCRβ chains were amplified with a two-step multiplex PCR approach using optimized set of primers that target the VDJ region spanning each unique CDR3B. A synthetic repertoire containing all possible V/J templates is used as a built-in control to quantify and correct PCR amplification biases. Processing of raw Illumina sequence reads, filtering, demultiplexing, clustering and mapping of CDR3 sequences and annotation of VDJ genes using IMGT database sequences were performed at Adaptive Biotechnologies and made available for download and analysis.

CASSPLLYSGNTIYF: TCRβ CDR3 clone, TCRBV07-02+TCRBJ01-03, Donor 3
Log10 Odds Ratio (Donor 3): 12.09 | No. of clone-specific productive templates, AIM+ CD4+ T (Total 16700) (Donor 3): 347 | No. of clone-specific productive templates, AIM− CD4+ T (Total 21770) (Donor 3): 0

CSATGGTNEKLFF: TCRβ CDR3 clone, TCRBV20-X+TCRBJ01-04, Donor 6
Log10 Odds Ratio (Donor 6): 1.59 | No. of clone-specific productive templates, AIM+ CD4+ T (Total 34927) (Donor 6): 500 | No. of clone-specific productive templates, AIM− CD4+ T (Total 45364) (Donor 6): 17

CATALAGGHEQYF: TCRβ CDR3 clone, TCRBV06-05+TCRBJ02-07, Donor 5
Log10 Odds Ratio (Donor 5): 2.60 | No. of clone-specific productive templates, AIM+ CD4+ T (Total 31354) (Donor 5): 753 | No. of clone-specific productive templates, AIM− CD4+ T (Total 48987) (Donor 5): 3

CASSELGLNTDTQYF: TCRβ CDR3 clone, TCRBV06-01+TCRBJ02-03, Donor 4
Log10 Odds Ratio (Donor 4): 1.11 | No. of clone-specific productive templates, AIM+ CD4+ T (Total 25796) (Donor 4): 2236 | No. of clone-specific productive templates, AIM− CD4+ T (Total 25928) (Donor 4): 190

CASSLYAGQNTEAFF: TCRβ CDR3 clone, TCRBV07-02+TCRBJ01-01, Donor 6
Log10 Odds Ratio (Donor 6): 2.35 | No. of clone-specific productive templates, AIM+ CD4+ T (Total 34927) (Donor 6): 344 | No. of clone-specific productive templates, AIM− CD4+ T (Total 45364) (Donor 6): 2

CASRTTTGFLSPLHF: TCRβ CDR3 clone, TCRBV27-01+TCRBJ01-06, Donor 3
Log10 Odds Ratio (Donor 3): 1.86 | No. of clone-specific productive templates, AIM+ CD4+ T (Total 16700) (Donor 3): 273 | No. of clone-specific productive templates, AIM− CD4+ T (Total 21770) (Donor 3): 5

CSAREGALDNSPLHF: TCRβ CDR3 clone, TCRBV20-X+TCRBJ01-06, Donor 5
Log10 Odds Ratio (Donor 5): 2.33 | No. of clone-specific productive templates, AIM+ CD4+ T (Total 31354) (Donor 5): 537 | No. of clone-specific productive templates, AIM− CD4+ T (Total 48987) (Donor 5): 4

CASSKVNEKLFF: TCRβ CDR3 clone, TCRBV03-01/03-02+TCRBJ01-04, Donor 2
Log10 Odds Ratio (Donor 2): 1.19 | No. of clone-specific productive templates, AIM+ CD4+ T (Total 18591) (Donor 2): 361 | No. of clone-specific productive templates, AIM− CD4+ T (Total 7206) (Donor 2): 9

CASSLERGAYGYTF: TCRβ CDR3 clone, TCRBV07-02+TCRBJ01-02, Donor 6
Log10 Odds Ratio (Donor 6): 2.81 | No. of clone-specific productive templates, AIM+ CD4+ T (Total 34927) (Donor 6): 963 | No. of clone-specific productive templates, AIM− CD4+ T (Total 45364) (Donor 6): 2

CASRGQRDTGELFF: TCRβ CDR3 clone, TCRBV19-01+TCRBJ02-02, Donor 1
Log10 Odds Ratio (Donor 1): 2.63 | No. of clone-specific productive templates, AIM+ CD4+ T (Total 21697) (Donor 1): 367 | No. of clone-specific productive templates, AIM− CD4+ T (Total 49956) (Donor 1): 2

CASSYGGGPPDTQYF: TCRβ CDR3 clone, TCRBV06-06+TCRBJ02-03, Donor 5
Log10 Odds Ratio (Donor 5): 2.34 | No. of clone-specific productive templates, AIM+ CD4+ T (Total 31354) (Donor 5): 810 | No. of clone-specific productive templates, AIM− CD4+ T (Total 48987) (Donor 5): 6

CASRKQGLGYTEAFF: TCRβ CDR3 clone, TCRBV02-01+TCRBJ01-01, Donor 4
Log10 Odds Ratio (Donor 4): 2.45 | No. of clone-specific productive templates, AIM+ CD4+ T (Total 25796) (Donor 4): 544 | No. of clone-specific productive templates, AIM− CD4+ T (Total 25928) (Donor 4): 2

CASSPRAGGAVREQYF: TCRβ CDR3 clone, TCRBV05-08+TCRBJ02-07, Donor 2
Log10 Odds Ratio (Donor 2): 12.03 | No. of clone-specific productive templates, AIM+ CD4+ T (Total 18591) (Donor 2): 375 | No. of clone-specific productive templates, AIM− CD4+ T (Total 7206) (Donor 2): 0

CASSYSSGGGNEQFF: TCRβ CDR3 clone, TCRBV06-05+TCRBJ02-01, Donor 1
Log10 Odds Ratio (Donor 1): 2.61 | No. of clone-specific productive templates, AIM+ CD4+ T (Total 21697) (Donor 1): 348 | No. of clone-specific productive templates, AIM− CD4+ T (Total 49956) (Donor 1): 2

CASSTTGLAAYNEQFF: TCRβ CDR3 clone, TCRBV19-01+TCRBJ02-01, Donor 1
Log10 Odds Ratio (Donor 1): 1.97 | No. of clone-specific productive templates, AIM+ CD4+ T (Total 21697) (Donor 1): 519 | No. of clone-specific productive templates, AIM− CD4+ T (Total 49956) (Donor 1): 13

CASSSSGSNYNEQFF: TCRβ CDR3 clone, TCRBV03-01/03-02+TCRBJ02-01, Donor 3
Log10 Odds Ratio (Donor 3): 1.19 | No. of clone-specific productive templates, AIM+ CD4+ T (Total 16700) (Donor 3): 597 | No. of clone-specific productive templates, AIM− CD4+ T (Total 21770) (Donor 3): 52

CSARVTGGGAHTGELFF: TCRβ CDR3 clone, TCRBV20-X+TCRBJ02-02, Donor 1
Log10 Odds Ratio (Donor 1): 2.69 | No. of clone-specific productive templates, AIM+ CD4+ T (Total 21697) (Donor 1): 422 | No. of clone-specific productive templates, AIM− CD4+ T (Total 49956) (Donor 1): 2

CASSWDRTKFGNQPQHF: TCRβ CDR3 clone, TCRBV19-01+TCRBJ01-05, Donor 2
Log10 Odds Ratio (Donor 2): 2.02 | No. of clone-specific productive templates, AIM+ CD4+ T (Total 18591) (Donor 2): 268 | No. of clone-specific productive templates, AIM− CD4+ T (Total 7206) (Donor 2): 1

CASRETGGAGELFF: TCRβ CDR3 clone, TCRBV06-05+TCRBJ02-02, Donor 6
Log10 Odds Ratio (Donor 6): 2.71 | No. of clone-specific productive templates, AIM+ CD4+ T (Total 34927) (Donor 6): 393 | No. of clone-specific productive templates, AIM− CD4+ T (Total 45364) (Donor 6): 1

CSASRTYDNQPQHF: TCRβ CDR3 clone, TCRBV20-01+TCRBJ01-05, Donor 2
Log10 Odds Ratio (Donor 2): 11.96 | No. of clone-specific productive templates, AIM+ CD4+ T (Total 18591) (Donor 2): 326 | No. of clone-specific productive templates, AIM− CD4+ T (Total 7206) (Donor 2): 0

CASRTIGQGSFNYGYTF: TCRβ CDR3 clone, TCRBV27-01+TCRBJ01-02, Donor 1
Log10 Odds Ratio (Donor 1): 2.78 | No. of clone-specific productive templates, AIM+ CD4+ T (Total 21697) (Donor 1): 257 | No. of clone-specific productive templates, AIM− CD4+ T (Total 49956) (Donor 1): 1

CASSYRQTNQPQHF: TCRβ CDR3 clone, TCRBV06-02/06-03+TCRBJ01-05, Donor 4
Log10 Odds Ratio (Donor 4): 12.14 | No. of clone-specific productive templates, AIM+ CD4+ T (Total 25796) (Donor 4): 509 | No. of clone-specific productive templates, AIM− CD4+ T (Total 25928) (Donor 4): 0

CASSISLALIYEQYF: TCRβ CDR3 clone, TCRBV19-01+TCRBJ02-07, Donor 6
Log10 Odds Ratio (Donor 6): 2.09 | No. of clone-specific productive templates, AIM+ CD4+ T (Total 34927) (Donor 6): 371 | No. of clone-specific productive templates, AIM− CD4+ T (Total 45364) (Donor 6): 4

CASTATESSPLHF: TCRβ CDR3 clone, TCRBV12-03/12-04+TCRBJ01-06, Donor 5
Log10 Odds Ratio (Donor 5): 11.80 | No. of clone-specific productive templates, AIM+ CD4+ T (Total 31354) (Donor 5): 415 | No. of clone-specific productive templates, AIM− CD4+ T (Total 48987) (Donor 5): 0

CATSEPGPLNQPQHF: TCRβ CDR3 clone, TCRBV24-01+TCRBJ01-05, Donor 3
Log10 Odds Ratio (Donor 3): 1.62 | No. of clone-specific productive templates, AIM+ CD4+ T (Total 16700) (Donor 3): 348 | No. of clone-specific productive templates, AIM− CD4+ T (Total 21770) (Donor 3): 11

CATSQGVGSGANVLTF: TCRβ CDR3 clone, TCRBV15-01+TCRBJ02-06, Donor 6
Log10 Odds Ratio (Donor 6): 2.24 | No. of clone-specific productive templates, AIM+ CD4+ T (Total 34927) (Donor 6): 649 | No. of clone-specific productive templates, AIM− CD4+ T (Total 45364) (Donor 6): 5

CASSDDLAANVLTF: TCRβ CDR3 clone, TCRBV13-01+TCRBJ02-06, Donor 2
Log10 Odds Ratio (Donor 2): 1.61 | No. of clone-specific productive templates, AIM+ CD4+ T (Total 18591) (Donor 2): 411 | No. of clone-specific productive templates, AIM− CD4+ T (Total 7206) (Donor 2): 4

CATSDFGKEGDEKLFF: TCRβ CDR3 clone, TCRBV24-01+TCRBJ01-04, Donor 5
Log10 Odds Ratio (Donor 5): 2.61 | No. of clone-specific productive templates, AIM+ CD4+ T (Total 31354) (Donor 5): 518 | No. of clone-specific productive templates, AIM− CD4+ T (Total 48987) (Donor 5): 2

CASSIRPNDEQFF: TCRβ CDR3 clone, TCRBV09-01+TCRBJ02-01, Donor 1
Log10 Odds Ratio (Donor 1): 2.93 | No. of clone-specific productive templates, AIM+ CD4+ T (Total 21697) (Donor 1): 366 | No. of clone-specific productive templates, AIM− CD4+ T (Total 49956) (Donor 1): 1

CSAMSPSGTGELFF: TCRβ CDR3 clone, TCRBV20-X+TCRBJ02-02, Donor 2
Log10 Odds Ratio (Donor 2): 12.19 | No. of clone-specific productive templates, AIM+ CD4+ T (Total 18591) (Donor 2): 549 | No. of clone-specific productive templates, AIM− CD4+ T (Total 7206) (Donor 2): 0

CASSPRGAVNTEAFF: TCRβ CDR3 clone, TCRBV07-09+TCRBJ01-01, Donor 4
Log10 Odds Ratio (Donor 4): 0.88 | No. of clone-specific productive templates, AIM+ CD4+ T (Total 25796) (Donor 4): 950 | No. of clone-specific productive templates, AIM− CD4+ T (Total 25928) (Donor 4): 130
